Values joined by “and” are separate entries in the source; they are usually repeats but may differ in a detail not shown here. Equal entries are not always repeated.
Biological target: T1, mouse Mfsd2a (Mus musculus, UniProt Q9DA75)
T1 construct: expressed in transfected cells; host or cells: HEK293
T1 sequence (Q9DA75 1-534): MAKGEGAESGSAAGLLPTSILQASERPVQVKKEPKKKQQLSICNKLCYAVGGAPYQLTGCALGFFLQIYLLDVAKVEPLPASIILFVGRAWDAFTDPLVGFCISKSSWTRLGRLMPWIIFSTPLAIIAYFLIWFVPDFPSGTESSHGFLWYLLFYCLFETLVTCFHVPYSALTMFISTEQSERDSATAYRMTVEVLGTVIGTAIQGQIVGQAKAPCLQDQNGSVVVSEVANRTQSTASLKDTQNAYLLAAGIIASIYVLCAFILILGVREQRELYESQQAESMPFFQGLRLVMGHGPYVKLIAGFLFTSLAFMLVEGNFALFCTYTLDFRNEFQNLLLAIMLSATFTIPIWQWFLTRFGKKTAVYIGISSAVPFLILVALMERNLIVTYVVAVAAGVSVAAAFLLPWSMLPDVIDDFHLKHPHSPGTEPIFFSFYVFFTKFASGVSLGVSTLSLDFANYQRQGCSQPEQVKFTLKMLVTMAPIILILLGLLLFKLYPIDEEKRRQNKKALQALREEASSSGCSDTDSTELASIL
Test: Cell-based free fatty acid transport/uptake in Mfsd2a expressing HEK293 cells (mass spectrometry, TLC; Table 1)
Details: Mfsd2a HEK293 cells, 100 uM fatty acid/BSA overnight
In short: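 HEK293 cells expressing mouse Mfsd2a, or mock controls, were incubated overnight with 100 μM BSA-complexed fatty acids. Lipids were extracted in hexane:isopropanol (3:2) and phospholipid species quantified by HPLC-MS/MS against spiked internal standards. For TLC, cells received 100 μM [^14C]-oleate overnight, and phospholipids and neutral lipids were resolved.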

Structure (SMILES): CCCCCCCCCCCCCCCC(=O)O [Palmitic acid]
- % DHA in PC + lysoPC: 0.03823% and 0.0379% and 0.03421%
- % DHA in PE + lysoPE: 10.42% and 11.02% and 9.771%
- % DHA in PI and lysoPI: 0.01451% and 0.01192% and 0.01113%
- % DHA in PS: 0.1262% and 0.1099% and 0.1138%
- LPI16:0 in total phospholipid: 0.004365 mol percent and 0.003505 mol percent and 0.0022 mol percent
- LPI18:0 in total phospholipid: 0.02606 mol percent and 0.0265 mol percent and 0.02588 mol percent
- LPI20:4 in total phospholipid: 0.001669 mol percent and 0.001542 mol percent and 0.001553 mol percent
- LPI22:6 in total phospholipid: 0.007831 mol percent and 0.008132 mol percent and 0.006212 mol percent
- Lyso PE16:0p in total phospholipid: 2.777 mol percent and 2.934 mol percent and 3.347 mol percent
- Lyso PE18:0p in total phospholipid: 0.434 mol percent and 0.5456 mol percent and 0.7875 mol percent
- Lyso PE20:0p in total phospholipid: 0.2604 mol percent and 0.1622 mol percent and 0.3221 mol percent
- LysoPC16:0e in total phospholipid: 0.004306 mol percent and 0.004045 mol percent and 0.00338 mol percent
- LysoPC16:0 in total phospholipid: 0.02231 mol percent and 0.02238 mol percent and 0.01839 mol percent
- LysoPC16:1 in total phospholipid: 0.006002 mol percent and 0.005731 mol percent and 0.005746 mol percent
- LysoPC18:0e in total phospholipid: 0.002349 mol percent and 0.002697 mol percent and 0.00142 mol percent
- LysoPC18:0 in total phospholipid: 0.005806 mol percent and 0.006675 mol percent and 0.006016 mol percent
- LysoPC18:1 in total phospholipid: 0.01311 mol percent and 0.01254 mol percent and 0.01251 mol percent
- LysoPC18:2 in total phospholipid: 0.001631 mol percent and 0.001146 mol percent and 0.001487 mol percent
- LysoPC20:4 in total phospholipid: 0.000587 mol percent and 0.000539 mol percent and 0.000608 mol percent
- LysoPC22:6 in total phospholipid: 0.000652 mol percent and 0.000809 mol percent and 0.000879 mol percent
- LysoPE16:1 in total phospholipid: 0.1736 mol percent and 0.1327 mol percent and 0.1253 mol percent
- LysoPE18:0 in total phospholipid: 0.1042 mol percent and 0.08847 mol percent and 0.1611 mol percent
- LysoPE18:1 in total phospholipid: 0.1215 mol percent and 0.07373 mol percent and 0.07159 mol percent
- PC32:0e in total phospholipid: 1.809 mol percent and 1.851 mol percent and 1.702 mol percent
- PC32:0 in total phospholipid: 2.456 mol percent and 2.444 mol percent and 2.298 mol percent
- PC32:1e in total phospholipid: 2.403 mol percent and 2.512 mol percent and 2.3 mol percent
- PC32:1 in total phospholipid: 9.104 mol percent and 9.244 mol percent and 8.731 mol percent
- PC32:2 in total phospholipid: 1.488 mol percent and 1.519 mol percent and 1.412 mol percent
- PC34:1e in total phospholipid: 4.813 mol percent and 4.891 mol percent and 4.611 mol percent
- PC34:1 in total phospholipid: 18.56 mol percent and 18.94 mol percent and 17.94 mol percent
- PC34:2e in total phospholipid: 1.486 mol percent and 1.537 mol percent and 1.423 mol percent
- PC34:2 in total phospholipid: 6.06 mol percent and 6.22 mol percent and 5.829 mol percent
- PC34:3e in total phospholipid: 0.2283 mol percent and 0.2319 mol percent and 0.2175 mol percent
- PC34:3 in total phospholipid: 0.615 mol percent and 0.6295 mol percent and 0.5976 mol percent
- PC36:1e in total phospholipid: 1.432 mol percent and 1.425 mol percent and 1.342 mol percent
- PC36:1 in total phospholipid: 2.54 mol percent and 2.547 mol percent and 2.409 mol percent
- PC36:2e in total phospholipid: 1.609 mol percent and 1.633 mol percent and 1.504 mol percent
- PC36:2 in total phospholipid: 5.692 mol percent and 5.815 mol percent and 5.439 mol percent
- PC36:3e in total phospholipid: 0.8012 mol percent and 0.8224 mol percent and 0.7603 mol percent
- PC36:3 in total phospholipid: 1.149 mol percent and 1.165 mol percent and 1.071 mol percent
- PC36:4e in total phospholipid: 0.4287 mol percent and 0.4448 mol percent and 0.4173 mol percent
- PC36:4 in total phospholipid: 0.3268 mol percent and 0.3193 mol percent and 0.308 mol percent
- PC36:5e in total phospholipid: 0.3253 mol percent and 0.3343 mol percent and 0.309 mol percent
- PC36:5 in total phospholipid: 0.05232 mol percent and 0.05663 mol percent and 0.05164 mol percent
- PC36:6 in total phospholipid: 0.05108 mol percent and 0.04821 mol percent and 0.04326 mol percent
- PC38:1e in total phospholipid: 0.3517 mol percent and 0.3555 mol percent and 0.3378 mol percent
- PC38:3e in total phospholipid: 0.4164 mol percent and 0.4068 mol percent and 0.3798 mol percent
- PC38:3 in total phospholipid: 0.5146 mol percent and 0.5317 mol percent and 0.5066 mol percent
- PC38:4e in total phospholipid: 0.4168 mol percent and 0.4143 mol percent and 0.3843 mol percent
- PC38:4 in total phospholipid: 0.4407 mol percent and 0.4455 mol percent and 0.4228 mol percent
- PC38:5e in total phospholipid: 0.3513 mol percent and 0.3625 mol percent and 0.3264 mol percent
- PC38:5 in total phospholipid: 0.2268 mol percent and 0.2451 mol percent and 0.2273 mol percent
- PC38:6 in total phospholipid: 0.1683 mol percent and 0.1727 mol percent and 0.1591 mol percent
- PC38:7 in total phospholipid: 0.1176 mol percent and 0.1195 mol percent and 0.1136 mol percent
- PC40:1e in total phospholipid: 0.1793 mol percent and 0.1879 mol percent and 0.168 mol percent
- PC40:2e in total phospholipid: 0.1944 mol percent and 0.1992 mol percent and 0.1788 mol percent
- PC40:3e in total phospholipid: 0.1397 mol percent and 0.1434 mol percent and 0.1332 mol percent
- PC40:4e in total phospholipid: 0.1237 mol percent and 0.1272 mol percent and 0.1205 mol percent
- PC40:5e in total phospholipid: 0.1172 mol percent and 0.1169 mol percent and 0.1115 mol percent
- PC40:5 in total phospholipid: 0.08233 mol percent and 0.08765 mol percent and 0.07997 mol percent
- PC40:6 in total phospholipid: 0.1131 mol percent and 0.1203 mol percent and 0.105 mol percent
- PC40:7 in total phospholipid: 0.1694 mol percent and 0.1653 mol percent and 0.1619 mol percent
- PE32:1 in total phospholipid: 0.4397 mol percent and 0.3146 mol percent and 0.3699 mol percent
- PE32:2 in total phospholipid: 0.09258 mol percent and 0.118 mol percent and 0.1193 mol percent
- PE34:1 in total phospholipid: 1.562 mol percent and 1.425 mol percent and 1.336 mol percent
- PE34:2 in total phospholipid: 1.088 mol percent and 0.9634 mol percent and 1.014 mol percent
- PE34p:1 in total phospholipid: 1.042 mol percent and 1.072 mol percent and 1.479 mol percent
